Data from patent US20020169101A1, “Treatment of sexual dysfunction” (priority 1999, published 2002).
“Also recorded” adds a separate entry of the source.

How the values were obtained:
[1] = tested on: female rat sexual proceptivity; assay: Female rat sexual proceptivity test (time investigating male vs female stimulus); type: in vivo
Method: Ovariectomised adult female Sprague Dawley rats (180-200 g, from Charles River) were housed in groups of 6 in a reversed lighting system of 12 h light:dark (lights off 7.00-19.00 h). Two weeks after ovariectomy they were used for sexual activity tests. The experiments started at least 5 h into the dark period.
Tests were carried out in a circular arena of 90 cm diameter, surrounded by a 30 cm high wall. Two small cages with wire-mesh front (15×15 cm) are fixed into the wall such that the front of the cage is <> with the wall and the 2 cages are opposite each other. They contained two stimuli animals: an intact sexually experienced male and a receptive female (ovariectomised, primed with 5 μg oestradiol benzoate dissolved in corn oil and injected subcutaneously 48 hours before the test and with 0.5 mg of progesterone four hours before the test). Sexually naive test and control animals were used. Forty eight hours before the tests, both the test and control animals were primed with 5 μg oestradiol benzoate. For animals used as positive controls, progesterone (0.5 mg/0.1 ml) was dissolved in corn oil and administered subcutaneously (s.c.), 4 h before the test. Test and control animals were introduced one at a time for 10 minute periods into the arena. During the 10 min test, the time that the test or positive control animal spent investigating each stimulus animal was noted. The arena was thoroughly cleaned between animals. The position of the male/female stimuli boxes was randomised between animals, in order to avoid place preference. The difference in the percentage of time spent investigating the male minus the female stimuli was calculated, out of the total time spent investigating stimuli animals.
Compound (1) was dissolved in 100% β-cyclodextrin and then diluted with saline to a final solution of 50% 2-hydroxypropyl-β-cyclodextrin. It was administered intraperitoneally (i.p.) at doses of 3 and 10 mg/kg, in a dosing volume of 1 ml/kg, 1 h before tests. Progesterone (0.5 mg/0.1 ml) was dissolved in corn oil and administered subcutaneously (s.c.), 4 h before test, as a positive control.
Ovariectomised adult female Sprague Dawley rats (180-200 g) were housed in groups of 5 in a reversed lighting system of 12 h light:dark (lights off 5.00-17.00 h). They were used for the experiments at least two weeks after ovariectomy. Forty eight hours before tests, the animals were primed with oestradiol benzoate (5 μg/[…] in corn oil, s.c.). On day 1, progesterone (0.5 mg/0.1 ml, in corn oil, s.c.) was administered to one of the groups 4 h before tests, as a positive control. Compound (1) (15 mg/kg, i.p.) was administered in 50% 2-hydroxypropyl-β-cyclodextrin, 1 h before tests. The test lasted 10 minutes and was carried out as described before. The difference in the percentage of time spent investigating the male minus the female stimuli was calculated, out of the total time spent investigating stimuli animals. Animals were submitted to a test on day 1 and on day 15. From day 2 to 14 the Compound (1) group received a daily injection of the compound (15 mg/kg, i.p.), while both the vehicle and the progesterone groups received an injection of vehicle. On day 15 the test took place again, as described for day 1.
Ovariectomised female rats (Sprague Dawley, obtained from Charles River, UK) were stereotaxically implanted (coordinates 0.89 mm behind Bregma, 1.3 mm lateral and 2.5 mm vertical) with stainless steel cannulae (6 mm long, O.D. 0.75 mm), held in place with dental cement. Animals were housed in groups of three and returned to a reversed lighting system of 12 h light:dark (lights off 5.00-17.00 h). Correct placement of the cannulae was assessed post-mortem. Rats were used for tests two weeks after ovariectomy (one week after cannulation). The experiments started at least 5 h into the dark period. […]

[2] = Plasma sexual hormone levels in ovariectomised female rats (radioimmunoassay); type: in vivo, rat
Method: Ovariectomised adult female Sprague Dawley rats (180-200 g) were housed in groups of 6 in a reversed lighting system of 12 h light:dark (lights off 7.00-19.00 h). They were used for the experiments at least two weeks after ovariectomy. Forty eight hours before tests, the animals were primed with oestradiol benzoate (5 μg/0.1 ml in corn oil, s.c.). Progesterone (0.5 mg/0.1 ml, in corn oil, s.c.) was administered 4 h before blood collection, as a positive control. Compound (1) (3-10 mg/kg, i.p.) was administered in 50% 2-hydroxypropyl-β-cyclodextrin, 1 h prior to blood collection. Blood was collected from the trunk, after decapitation. It was immediately centrifuged (3500 r.p.m., 4° C., 5 min) and the plasmas frozen until assayed for hormonal content, using commercially available radioimmunoassay kits (^125I-labelled hormones) for oestradiol, progesterone, LH, FSH and prolactin.

SMILES: COc1ccc(C2(CNC(=O)[C@](C)(Cc3c[nH]c4ccccc34)NC(=O)Nc3ccc([N+](=O)[O-])cc3)CCCCC2)nc1 [Compound (1), (S) 3-(1H-Indol-3-yl)-N-[1-(5-methoxy-pyridin-2-yl)-cyclohexyl-methyl]-2-methyl-2-[3-(4-nitro-phenyl)-ureido]-propionamide]
- body weight, general behaviour, tolerability on repeated administration ([1]; 15 mg/kg i.p. daily for 15 days, female rats): no changes in body weight or general behaviour; also recorded: well tolerated
- proceptivity on day 1 vs vehicle ([1]; Compound (1) 15 mg/kg i.p. 1 h before test, progesterone 0.5 mg s.c. 4 h before test (FIG. 3)): stimulatory effect on proceptivity
- percentage of time spent investigating the male stimulus ([1]; i.c.v., 3-30 μg/rat, 10 min before test (FIG. 4)): dose-dependently (3-30 μg/rat) increased the percentage of time spent investigating the male stimulus
- percentage of time spent investigating the male stimulus ([1]; i.p., 3 and 10 mg/kg, 1 h before test, vs vehicle (FIG. 1)): dose-dependently (3 mg/kg-10 mg/kg) increased the percentage of time spent investigating the male stimulus
- plasma levels of progesterone ([2]; Compound (1) 3-10 mg/kg i.p. 1 h, progesterone 0.5 mg s.c. 4 h before blood collection, vs vehicle (FIG. 6)): no effect
- plasma levels of LH ([2]; Compound (1) 3-10 mg/kg i.p. 1 h, progesterone 0.5 mg s.c. 4 h before blood collection, vs vehicle (FIG. 9)): no effect
- plasma levels of oestradiol ([2]; Compound (1) 3-10 mg/kg i.p. 1 h before blood collection (FIG. 7)): no effect
- plasma levels of prolactin ([2]; Compound (1) 3-10 mg/kg i.p. 1 h before blood collection (FIG. 8)): no effect
- plasma levels of FSH ([2]; Compound (1) 3-10 mg/kg i.p. 1 h before blood collection (FIG. 10)): no effect
